In test [1] the test system is Glomerella lagenarium (Colletotrichum lagenarium). Nature of the test: Fungicidal activity against Glomerella lagenarium (Colletotrichum lagenarium) liquid culture / cucumber / preventative (anthracnose). It is filed as cell-based. Conditions: Colletotrichum orbiculare, 72 h; 20 ppm in the applied formulation; liquid culture (PDB), growth inhibition measured photometrically 3 to 4 days after application; vs untreated control; read-out: disease control. The method, then: Mycelia fragments or conidia suspensions of a fungus prepared either freshly from liquid cultures of the fungus or from cryogenic storage, are directly mixed into nutrient broth. DMSO solutions of the test compound (max. 10 mg/ml) are diluted with 0.025% Tween20 by a factor of 50 and 10 μl of this solution is pipetted into a microtiter plate (96-well format). The nutrient broth containing the fungal spores/mycelia fragments is then added to give an end concentration of the tested compound. The test plates are incubated in the dark at 24° C. and 96% relative humidity. The inhibition of fungal growth is determined photometrically after 2 to 7 days, depending on the pathosystem, and percent antifungal activity relative to the untreated check is calculated.
Conidia of the fungus from cryogenic storage are directly mixed into nutrient broth (PDB—potato dextrose broth). After placing a (DMSO) solution of test compound into a microtiter plate (96-well format), the nutrient broth containing the fungal spores is added. The test plates are incubated at 24° C. and the inhibition of growth is measured photometrically 3 to 4 days after application.
The following compounds at 20 ppm in the applied formulation give at least 80% disease control in this test when compared to untreated control under the same conditions, which show extensive disease development.

A further test concerns Phakopsora pachyrhizi. Nature of the test: Fungicidal activity against Phakopsora pachyrhizi / soybean / leaf disc preventative (Asian soybean rust). It is filed as in vivo. Particulars: foliar, 200 ppm in the applied formulation, soybean leaf disks, vs untreated control, read-out: disease control. The method, then:
Leaf disks or leaf segments of various plant species are cut from plants grown in a greenhouse. The cut leaf disks or segments are placed in multiwell plates (24-well format) onto water agar. The leaf disks are sprayed with a test solution before (preventative) or after (curative) inoculation. Compounds to be tested are prepared as DMSO solutions (max. 10 mg/ml) which are diluted to the appropriate concentration with 0.025% Tween20 just before spraying. The inoculated leaf disks or segments are incubated under defined conditions (temperature, relative humidity, light, etc.) according to the respective test system. A single evaluation of disease level is carried out 3 to 14 days after inoculation, depending on the pathosystem. Percent disease control relative to the untreated check leaf disks or segments is then calculated. Soybean leaf disks are placed on water agar in multiwell plates (24-well format) and sprayed with the formulated test compound diluted in water. One day after application leaf discs are inoculated by spraying a spore suspension on the lower leaf surface. After an incubation period in a climate cabinet of 24-36 hours in darkness at 20° C. and 75% rh leaf disc are kept at 20° C. with 12 hours light/12 hours and 75% rh. The activity of a compound is assessed as percent disease control compared to untreated when an appropriate level of disease damage appears in untreated check leaf disks (12 to 14 days after application). The following compounds at 200 ppm in the applied formulation give at least 80% disease control in this test when compared to untreated control leaf disks under the same conditions, which show extensive disease development.

In test [2] the test system is Puccinia recondita f. sp. Tritici. Description: Fungicidal activity against Puccinia recondita f. sp. Tritici / wheat / leaf disc preventative (brown rust). Conditions: foliar, 200 ppm in the applied formulation, wheat leaf segments cv. Kanzler, inoculated 1 day after application, vs untreated control, read-out: disease control. It is filed as in vivo. The method, then: Leaf disks or leaf segments of various plant species are cut from plants grown in a greenhouse. The cut leaf disks or segments are placed in multiwell plates (24-well format) onto water agar. The leaf disks are sprayed with a test solution before (preventative) or after (curative) inoculation. Compounds to be tested are prepared as DMSO solutions (max. 10 mg/ml) which are diluted to the appropriate concentration with 0.025% Tween20 just before spraying. The inoculated leaf disks or segments are incubated under defined conditions (temperature, relative humidity, light, etc.) according to the respective test system. A single evaluation of disease level is carried out 3 to 14 days after inoculation, depending on the pathosystem. Percent disease control relative to the untreated check leaf disks or segments is then calculated. Wheat leaf segments cv. Kanzler were placed on agar in multiwell plates (24-well format) and sprayed with the formulated test compound diluted in water. The leaf disks were inoculated with a spore suspension of the fungus 1 day after application. The inoculated leaf segments were incubated at 19° C. and 75% relative humidity (rh) under a light regime of 12 hours light/12 hours darkness in a climate cabinet and the activity of a compound was assessed as percent disease control compared to untreated when an appropriate level of disease damage appears in untreated check leaf segments (7 to 9 days after application). The following compounds at 200 ppm in the applied formulation give at least 80% disease control in this test when compared to untreated control leaf disks under the same conditions, which show extensive disease development.

Turning to `O=C(NCC=NOCc1ccccc1Cl)c1ccc(-c2noc(C(F)(F)F)n2)cc1` [Compound 1.67, N-[2-[(2-chlorophenyl)methoxyimino]ethyl]-4-[5-(trifluoromethyl)-1,2,4-oxadiazol-3-yl]benzamide], the inhibition of growth at 20 ppm in test [1] was ≥ 80%. Further, the pest or weed control at 200 ppm (with Phakopsora pachyrhizi; in test [2]) was ≥ 80% throughout.

For `CCCCON=CC(C)NC(=O)c1ccc(-c2noc(C(F)(F)F)n2)cc1` (centres unmarked) [Compound 1.40, N-(2-butoxyimino-1-methyl-ethyl)-4-[5-(trifluoromethyl)-1,2,4-oxadiazol-3-yl]benzamide], the inhibition of growth at 20 ppm in test [1] was ≥ 80%. Besides, the pest or weed control at 200 ppm (with Phakopsora pachyrhizi; in test [2]) was ≥ 80% each time.

In the case of `O=C(NCC=NOCC=C(Cl)Cl)c1ccc(-c2noc(C(F)(F)F)n2)cc1` [Compound 1.79, N-[2-(3,3-dichloroallyloxy-imino)ethyl]-4-[5-(trifluoromethyl)-1,2,4-oxadiazol-3-yl]benzamide], the inhibition of growth at 20 ppm in test [1] was ≥ 80%. For the same compound, the pest or weed control at 200 ppm (in the test on Phakopsora pachyrhizi; in test [2]) was ≥ 80% each time.

As for `O=C(NCC=NOCc1ccc(F)cc1Cl)c1ccc(-c2noc(C(F)(F)F)n2)cc1` [Compound 1.71, N-[2-[(2-chloro-4-fluoro-phenyl)methoxy-imino]ethyl]-4-[5-(trifluoromethyl)-1,2,4-oxadiazol-3-yl]benzamide], the inhibition of growth at 20 ppm in test [1] is ≥ 80%. Also, the pest or weed control at 200 ppm (in the test with Phakopsora pachyrhizi; in test [2]) was ≥ 80% in each case.

On to `CC(CNC(=O)c1ccc(-c2noc(C(F)(F)F)n2)cc1)=NOCC(F)(F)F` [Compound 1.139, N-[2-(2,2,2-trifluoroethoxy-imino)propyl]-4-[5-(trifluoromethyl)-1,2,4-oxadiazol-3-yl]benzamide], for which, in test [1], the inhibition of growth at 20 ppm is ≥ 80%. Moreover, the pest or weed control at 200 ppm (in the test on Phakopsora pachyrhizi; in test [2]) was ≥ 80% each time.

With `CC(C=NOCc1ccccc1CC(=O)O)NC(=O)c1ccc(-c2noc(C(F)(F)F)n2)cc1` (centres unmarked) [Compound 1.48, 2-[2-[[2-[[4-[5-(trifluoromethyl)-1,2,4-oxadiazol-3-yl]benzoyl]amino]propylideneamino]oxymethyl]phenyl] acetic acid], in test [1], the inhibition of growth at 20 ppm is ≥ 80%. The pest or weed control at 200 ppm (in the test on Phakopsora pachyrhizi; in test [2]) was ≥ 80% each time.

As for `O=C(O)Cc1ccccc1CON=CCNC(=O)c1ccc(-c2noc(C(F)(F)F)n2)cc1` [Compound 1.92, 2-[2-[[2-[[4-[5-(trifluoromethyl)-1,2,4-oxadiazol-3-yl]benzoyl]amino]ethylideneamino]oxymethyl]phenyl] acetic acid], the inhibition of growth at 20 ppm in test [1] was ≥ 80%. Also, the pest or weed control at 200 ppm (with Phakopsora pachyrhizi; in test [2]) was ≥ 80% each time.

Regarding `C=C(Cl)CON=C(C)CNC(=O)c1ccc(-c2noc(C(F)(F)F)n2)cc1` [Compound 1.144, N-[2-(2-chloroallyloxy-imino)propyl]-4-[5-(trifluoromethyl)-1,2,4-oxadiazol-3-yl]benzamide], in test [1], the inhibition of growth at 20 ppm was ≥ 80%. In addition, the pest or weed control at 200 ppm (with Phakopsora pachyrhizi; in test [2]) was ≥ 80% throughout.

With `COC(=O)Cc1ccccc1CON=CC(C)NC(=O)c1ccc(-c2noc(C(F)(F)F)n2)cc1` (centres unmarked) [Compound 1.49, methyl 2-[2-[[2-[[4-[5-(trifluoromethyl)-1,2,4-oxadiazol-3-yl]benzoyl]amino]propylideneamino]oxymethyl]phenyl]acetate], the inhibition of growth at 20 ppm in test [1] is ≥ 80%. Besides, in test [2], the pest or weed control at 200 ppm is ≥ 80%.

On to `CC(CNC(=O)c1ccc(-c2noc(C(F)(F)F)n2)cc1)=NOCc1ccccc1CC(=O)O` [Compound 1.136, 2-[2-[[[1-methyl-2-[[4-[5-(trifluoromethyl)-1,2,4-oxadiazol-3-yl]benzoyl]amino]ethylidene]amino]oxymethyl]phenyl]acetic acid], for which the inhibition of growth at 20 ppm in test [1] is ≥ 80%. For the same compound, the pest or weed control at 200 ppm in test [2] is ≥ 80%.

Regarding `COc1cccc(CON=CCNC(=O)c2ccc(-c3noc(C(F)(F)F)n3)cc2)c1` [Compound 1.62, N-[2-[(3-methoxyphenyl)methoxyimino]ethyl]-4-[5-(trifluoromethyl)-1,2,4-oxadiazol-3-yl]benzamide], the inhibition of growth at 20 ppm in test [1] was ≥ 80%. For the same compound, the pest or weed control at 200 ppm (with Phakopsora pachyrhizi; in test [2]) was ≥ 80% in each case.

For `CC(C)=CCON=CCNC(=O)c1ccc(-c2noc(C(F)(F)F)n2)cc1` [Compound 1.80, N-[2-(3-methylbut-2-enoxyimino)ethyl]-4-[5-(trifluoromethyl)-1,2,4-oxadiazol-3-yl]benzamide], the inhibition of growth at 20 ppm in test [1] is ≥ 80%. For the same compound, the pest or weed control at 200 ppm (with Phakopsora pachyrhizi; in test [2]) was ≥ 80% throughout.

With `COc1cccc(CON=C(C)CNC(=O)c2ccc(-c3noc(C(F)(F)F)n3)cc2)c1` [Compound 1.106, N-[2-[(3-methoxyphenyl)methoxyimino]propyl]-4-[5-(trifluoromethyl)-1,2,4-oxadiazol-3-yl]benzamide], the inhibition of growth at 20 ppm in test [1] is ≥ 80%. The pest or weed control at 200 ppm in test [2] was ≥ 80%.

`O=C(O)CON=CCNC(=O)c1ccc(-c2noc(C(F)(F)F)n2)cc1` [Compound 1.65, 2-[2-[[4-[5-(trifluoromethyl)-1,2,4-oxadiazol-3-yl]benzoyl]amino]ethylideneamino] oxyacetic acid]: in test [1], the inhibition of growth at 20 ppm was ≥ 80%. Moreover, the pest or weed control at 200 ppm (in the test with Phakopsora pachyrhizi; in test [2]) was ≥ 80% each time.

For the compound `CC(CNC(=O)c1ccc(-c2noc(C(F)(F)F)n2)cc1)=NOCC=C(Cl)Cl` [Compound 1.122, N-[2-(3,3-dichloroallyloxy-imino)propyl]-4-[5-(trifluoromethyl)-1,2,4-oxadiazol-3-yl]benzamide], the inhibition of growth at 20 ppm in test [1] was ≥ 80%. The pest or weed control at 200 ppm (with Phakopsora pachyrhizi; in test [2]) was ≥ 80% in each case.

Take `O=C(NCC=NOCc1ccc([N+](=O)[O-])cc1)c1ccc(-c2noc(C(F)(F)F)n2)cc1` [Compound 1.61, N-[2-[(4-nitrophenyl)methoxyimino]ethyl]-4-[5-(trifluoromethyl)-1,2,4-oxadiazol-3-yl]benzamide]: the pest or weed control at 200 ppm (with Phakopsora pachyrhizi; in test [2]) was ≥ 80% each time.

For `CC(CNC(=O)c1ccc(-c2noc(C(F)(F)F)n2)cc1)=NOCC(=O)O` [Compound 1.109, 2-[[1-methyl-2-[[4-[5-(trifluoromethyl)-1,2,4-oxadiazol-3-yl]benzoyl]amino]ethylidene]amino] oxyacetic acid], the inhibition of growth at 20 ppm in test [1] was ≥ 80%. Further, the pest or weed control at 200 ppm in test [2] was ≥ 80%.

As for `O=C(NCC=NOCc1cccc(Cl)c1)c1ccc(-c2noc(C(F)(F)F)n2)cc1` [Compound 1.97, N-[2-[(3-chlorophenyl)methoxyimino]ethyl]-4-[5-(trifluoromethyl)-1,2,4-oxadiazol-3-yl]benzamide], the pest or weed control at 200 ppm in test [2] was ≥ 80%.
